This note sets out measurements from article PMC8989888, “Development of optimized drug-like small molecule inhibitors of the SARS-CoV-2 3CL protease for treatment of COVID-19” (Nature Communications, 2022).

Molecules are shown by their SMILES. Values joined by “and” are separate entries in the source; they are usually repeats but may differ in a detail not shown here. Equal values may be shown once. Read-outs that look alike come from different tables or passages of the source.

Assay [1] deals with T1, SARS-CoV-2 3CL protease (Severe acute respiratory syndrome coronavirus 2, UniProt P0DTD1). Nature of the assay: biochemical. The following applies: for kinact/KI: read-out: SARS-CoV-2 3CLpro kinact/KI.
For assay [2], the system named is SARS-CoV-2. The assay can be described thus: microbe, parasite or virus in culture. The format is cell-based. The following applies: for EC50: Severe acute respiratory syndrome coronavirus 2, 24 h, read-out: SARS-CoV-2 Huh-7ACE2 EC50.
Assay [3] addresses T1, SARS-CoV-2 3CL protease. Nature of the assay: biochemical. The following applies: for IC50 / % SARS-CoV-2 3CL activity: 20 nM protease; for IC50: read-out: SARS-CoV-2 3CLpro IC50; for % SARS-CoV-2 3CL activity / Normalized SARS-CoV-2 3CL protease activity: replicates; for Normalized SARS-CoV-2 3CL protease activity: 0.2 µM protease with 50 µM tested compound.
Assay [4] deals with SARS-CoV-2. The assay can be described thus: microbe, parasite or virus in culture. The format is cell-based. The following applies: Severe acute respiratory syndrome coronavirus 2, Vero C1008, read-out: SARS-CoV-2 Vero E6 EC50.
Assay [5] has as its system Influenza A H1N1 (strain: California/07/2009). The assay can be described thus: microbe, parasite or virus in culture. The assay is classed as cell-based. Particulars: Influenza A virus, H1N1, MDCK, read-out: Influenza A (H1N1) MDCK EC50.
Assay [6] addresses T1, SARS-CoV-2 3CL protease. Nature of the assay: cell-based.
Setting [7] is: Concentration of inhibitor (nM) 0.19382.
[8] abbreviates: Concentration of inhibitor (nM) 0.49485.
Setting [9] is: Concentration of inhibitor (nM) 0.79588.
Setting [10] is: Concentration of inhibitor (nM) 1.09691.
The mark [11] stands for this setting: Concentration of inhibitor (nM) 1.39794.
[12] abbreviates: Concentration of inhibitor (nM) 1.69897.
Where [13] appears, read: Concentration of inhibitor (nM) 2.30103.
[14] abbreviates: Concentration of inhibitor (nM) -0.10721.
The mark [15] stands for this setting: Concentration of inhibitor (nM) -0.40824.

In the case of `CC(C)C[C@H](NC(=O)OCc1cccc2ccccc12)C(=O)N[C@@H](C[C@@H]1CCNC1=O)C(O)S(=O)(=O)O` (stereo partly shown) [EB55], the “observed inactivation rate vs compound concentration (Figure S19, replicate values)” value at SARS-CoV-2 3CL protease [1] was 0.0457 and 0.0269 and 0.0571 and -0.0002 and 0.0258 and 0.0554 and 0.0425 and 0.0417 and 0.0134 and 0.0205 and 0.022 and 0.0066. Moreover, the kinact/KI at SARS-CoV-2 3CL protease [1] was 21700 M⁻¹ s⁻¹. Also, the “inhibition of SARS-CoV-2 (Figure s17b dose-response, replicate values)” value with SARS-CoV-2 [2] is 100.856 and 96.5428 and 101.322 and 91.4468 and 90.1295 and 92.8292 and 65.5151 and 69.1898 and 72.8142 and 38.0936 and 42.5735 and 35.1981 and 28.1354 and 24.4902 and 21.8952 and 10.9114 and 19.9799 and 11.8441 and 9.792 and 14.2234 and 10.7567. Also, the EC50 stood at 11 nM in the assay with SARS-CoV-2 [2] and 3000 nM in the assay with SARS-CoV-2 [4]. Also, the 50% inhibitory concentration (IC50) on SARS-CoV-2 3CL protease [3] is 72 nM. For the same molecule, the “normalized activity, dose-response curve (Figure S16)” value (“normalized activity” below) at SARS-CoV-2 3CL protease [3] (setting [7]) was 97.6947 and 91.9164; on SARS-CoV-2 3CL protease [3] (setting [8]), 90.7787 and 89.6887; on SARS-CoV-2 3CL protease [3] (setting [9]) it was 89.0003 and 83.5464; on SARS-CoV-2 3CL protease [3] (setting [10]), 84.4555 and 78.5499; on SARS-CoV-2 3CL protease [3] (setting [11]), 77.2102 and 70.0207; at SARS-CoV-2 3CL protease [3] (setting [12]), 64.1027 and 59.773. Further, the “normalized activity” value is 47.4055 and 42.8102 at SARS-CoV-2 3CL protease [3] (Concentration of inhibitor (nM) 2); 16.7117 and 14.6768 on SARS-CoV-2 3CL protease [3] (setting [13]); 100.329 and 102.132 at SARS-CoV-2 3CL protease [3] (setting [14]); 100 at SARS-CoV-2 3CL protease [3] (setting [15]).
On to `O=C(N[C@@H](CC1CC1)C(=O)N[C@@H](C[C@@H]1CCNC1=O)C(O)S(=O)(=O)O)OCc1ccccc1Cl` (stereo partly shown) [NK01-69], for which the “observed inactivation rate vs compound concentration (Figure S19, replicate values)” value on SARS-CoV-2 3CL protease [1] was 0.0682 and 0.0478 and 0.0347 and 0.0227 and 0.0119 and 0.047 and -0.00793 and 0.0043 and 0.0066 and 0.0454 and 0.0603 and 0.0339 and 0.0459 and 0.0266 and 0.0345 and 0.0301 and 0.0444 and 0.0675. In addition, the kinact/KI at SARS-CoV-2 3CL protease [1] was 70000 M⁻¹ s⁻¹. The “inhibition of SARS-CoV-2 (Figure s17b dose-response, replicate values)” value in the assay on SARS-CoV-2 [2] was 112.139 and 77.9057 and 91.5513 and 79.8842 and 49.1022 and 70.5924 and 62.1924 and 62.9155 and 78.4113 and -0.7628 and 38.0643 and 11.5151 and -8.426 and 17.4096 and 4.8166 and -9.308 and 10.7894 and 11.3275 and 55.1502 and 29.5769 and 12.5491. For the same molecule, in the assay on SARS-CoV-2 [2], the EC50 was 35 nM. The 50% inhibitory concentration (IC50) on SARS-CoV-2 3CL protease [3] amounted to 24 nM. Further, the “normalized activity” value was 88.5666 and 86.5188 at SARS-CoV-2 3CL protease [3] (setting [7]); 72.8669 and 79.1809 at SARS-CoV-2 3CL protease [3] (setting [8]); 75 and 74.3174 on SARS-CoV-2 3CL protease [3] (setting [9]); 65.1024 and 60.8362 on SARS-CoV-2 3CL protease [3] (setting [10]); 47.5256 and 39.3345 on SARS-CoV-2 3CL protease [3] (setting [11]); 32.1672 and 24.5734 at SARS-CoV-2 3CL protease [3] (setting [12]). Also, the “normalized activity” value was 4.608 and 4.693 on SARS-CoV-2 3CL protease [3] (setting [13]); 106.997 and 100.683 at SARS-CoV-2 3CL protease [3] (setting [14]); 89.5904 and 100 at SARS-CoV-2 3CL protease [3] (setting [15]).
As for `NC(=O)c1ncn([C@@H]2O[C@H](CO)[C@@H](O)[C@H]2O)n1` [Ribavirin, reference compound], the EC50 in assay [5] stood at 3200 nM.
As to `O=C(Oc1cncc(Cl)c1)c1ccco1` [T71], at SARS-CoV-2 3CL protease [6], the “Absorbance (crystal violet), SARS-CoV-2 3CLpro” value (“Absorbance (crystal violet)” below) is 0.16 and 0.1636. Further, the “% SARS-CoV-2 3CL activity” value is 86.3659% and 89.8434% on SARS-CoV-2 3CL protease [3] (log10[nM] 0.19382); 80.2845% and 76.3012% on SARS-CoV-2 3CL protease [3] (log10[nM] 0.49485); 65.6694% and 65.2855% on SARS-CoV-2 3CL protease [3] (log10[nM] 0.79588); 47.7195% and 48.4083% on SARS-CoV-2 3CL protease [3] (log10[nM] 1.09691); 16.1844% and 18.9995% on SARS-CoV-2 3CL protease [3] (log10[nM] 1.39794); 0.4414% and 4.144% on SARS-CoV-2 3CL protease [3] (log10[nM] 1.69897). Further, the “% SARS-CoV-2 3CL activity” value is -3.629% and 1.061% on SARS-CoV-2 3CL protease [3] (log10[nM] 2); -2.6974% and 0.4042% on SARS-CoV-2 3CL protease [3] (log10[nM] 2.30103); -1.9127% and -0.758% on SARS-CoV-2 3CL protease [3] (log10[nM] 2.60206); 0% on SARS-CoV-2 3CL protease [3] (log10[nM] 2.90309); 95.0956% and 96.5639% on SARS-CoV-2 3CL protease [3] (log10[nM] -0.10721); 100% at SARS-CoV-2 3CL protease [3] (log10[nM] -0.40824). The half-maximal inhibitory concentration (IC50) at SARS-CoV-2 3CL protease [3] was determined as 11 nM. Besides, the “Normalized SARS-CoV-2 3CL protease activity” value on SARS-CoV-2 3CL protease [3] is 0.04328 and 0.01902 and 0.03148.
In the case of `O=C(/C=C/c1ccc(F)cc1)Oc1cc(Cl)c[nH]c1=O` [Z14], at SARS-CoV-2 3CL protease [6], the “Absorbance (crystal violet)” value is 0.1689 and 0.1739. The “Normalized SARS-CoV-2 3CL protease activity” value on SARS-CoV-2 3CL protease [3] was 1.002 and 0.9823 and 0.9751.
Consider `CC(=O)N1CCc2cc(C(=O)Oc3cncc(Cl)c3)ccc21` [Z21], for which, on SARS-CoV-2 3CL protease [6], the “Absorbance (crystal violet)” value was 0.1721 and 0.1614. The “Normalized SARS-CoV-2 3CL protease activity” value at SARS-CoV-2 3CL protease [3] is 0.2321 and 0.2984.
Regarding `Cn1ncc(C(=O)Oc2cncc(Cl)c2)c1-n1cccc1` [Z26], on SARS-CoV-2 3CL protease [6], the “Absorbance (crystal violet)” value is 0.1558 and 0.1505. Besides, the “Normalized SARS-CoV-2 3CL protease activity” value at SARS-CoV-2 3CL protease [3] was 0.2302 and 0.2702 and 0.2695.
